The IC50 is the concentration at which inhibition is half-maximal.

Here are results for 20 compounds from US20110319392A1, “Thiazole Sulfonamide And Oxazole Sulfonamide Kinase Inhibitors” (priority 2009, published 2011).

For one test, the target named is B-Raf (Homo sapiens, UniProt P15056). Briefly: B-Raf Accelerated MEK ATPase assay (BRAMA), Method A or B. The following applies: Method B: final MEK 150 nM, single end point read. Type of test: biochemical. In short, it runs like this:
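ADP production, initiated by catalytic activated Raf with unphosphorylated MEK, is followed by NADH oxidation through a PK/LDH coupled system. Method B differs from the kinetic Method A by a single end-point read and 150 nM final MEK.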

For a further test, the system named is SK-MEL-28 tumor cells. Briefly: Cell growth inhibition assay (CellTiter-Glo), SK-MEL-28. Type of test: cell-based, Human. The following applies: Homo sapiens, SK-MEL-28, 72 h; 3 days incubation. In short, it runs like this:
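Readout was CellTiter-Glo luminescence (total ATP, surrogate for cell number) after 3-day exposure at 37° C, 5% CO2 to 1:3 serial compound dilutions in 0.2% final DMSO. Seeding was 500 cells/well; IC50 derived by 4-parameter fit relative to vehicle-treated wells.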
In general terms: ATP-based viability assays read luminescence as a measure of living cells.

Chain of B-Raf (P15056 whole entry): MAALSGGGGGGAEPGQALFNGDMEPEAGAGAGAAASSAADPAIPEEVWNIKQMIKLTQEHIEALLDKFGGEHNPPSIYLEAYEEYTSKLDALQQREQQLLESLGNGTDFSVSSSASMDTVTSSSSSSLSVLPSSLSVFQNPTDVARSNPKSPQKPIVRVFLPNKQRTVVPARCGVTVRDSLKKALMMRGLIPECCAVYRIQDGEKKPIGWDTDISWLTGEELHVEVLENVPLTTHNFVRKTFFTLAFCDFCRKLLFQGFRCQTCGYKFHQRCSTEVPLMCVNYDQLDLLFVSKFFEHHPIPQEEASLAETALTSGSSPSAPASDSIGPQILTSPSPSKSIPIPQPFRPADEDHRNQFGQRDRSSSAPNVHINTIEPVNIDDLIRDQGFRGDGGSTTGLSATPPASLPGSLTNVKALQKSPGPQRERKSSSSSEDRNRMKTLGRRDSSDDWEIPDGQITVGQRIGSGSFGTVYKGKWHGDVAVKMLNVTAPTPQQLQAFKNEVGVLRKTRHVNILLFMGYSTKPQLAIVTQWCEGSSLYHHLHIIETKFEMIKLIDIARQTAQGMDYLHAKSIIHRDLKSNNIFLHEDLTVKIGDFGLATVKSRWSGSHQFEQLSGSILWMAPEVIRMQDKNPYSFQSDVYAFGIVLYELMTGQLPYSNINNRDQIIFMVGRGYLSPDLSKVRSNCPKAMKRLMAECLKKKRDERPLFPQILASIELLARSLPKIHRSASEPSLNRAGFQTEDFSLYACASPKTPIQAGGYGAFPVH

Turning to `O=S(=O)(Nc1cc(-c2nc(N3CCOCC3)sc2-c2ccnc(Nc3ccc(N4CCOCC4)nc3)n2)ccc1F)c1c(F)cccc1F` [Example 121], the values for the IC50 at B-Raf and with SK-MEL-28 tumor cells were less than 100 nM and 100 to 1000 nM, respectively.

As for `O=S(=O)(Nc1cccc(-c2nc(N3CCOCC3)sc2-c2ccnc(Nc3ccc(N4CCOCC4)nc3)n2)c1F)c1c(F)cccc1F` [Example 122], the IC50 on B-Raf and with SK-MEL-28 tumor cells was less than 100 nM throughout.

Take `CC(C)c1nc(-c2cccc(NS(=O)(=O)c3c(F)cccc3F)c2F)c(-c2ccnc(Nc3ccc(N4CCOCC4)nc3)n2)s1` [Example 123]: the concentration for half-maximal inhibition (IC50) at B-Raf and with SK-MEL-28 tumor cells was less than 100 nM in each case.

For the compound `Cc1cc(N2CCOCC2)ncc1Nc1nccc(-c2sc(N3CCCC3)nc2-c2cccc(NS(=O)(=O)c3c(F)cccc3F)c2)n1` [Example 124], the IC50 at B-Raf is less than 100 nM; in the test on SK-MEL-28 tumor cells it was 100 to 1000 nM.

As to `CN1CCN(c2nc(-c3ccc(F)c(NS(=O)(=O)c4c(F)cccc4F)c3)c(-c3ccnc(Nc4ccc(N5CCOCC5)nc4)n3)s2)CC1` [Example 126], the IC50 on B-Raf and with SK-MEL-28 tumor cells was less than 100 nM each time.

As to `O=S(=O)(Nc1cc(-c2nc(N3CCOCC3)sc2-c2ccnc(Nc3ccc4c(c3)OCCO4)n2)ccc1F)c1c(F)cccc1F` [Example 127], the IC50 against B-Raf and in the test with SK-MEL-28 tumor cells was 100 to 1000 nM throughout.

In the case of `COc1cc(N2CCN(CCS(C)(=O)=O)CC2)c(C)cc1Nc1nccc(-c2sc(N3CCOCC3)nc2-c2cccc(NS(=O)(=O)c3c(F)cccc3F)c2)n1` [Example 128], the IC50 at B-Raf and in the test with SK-MEL-28 tumor cells was 100 to 1000 nM throughout.

On to `CS(=O)(=O)c1cccc(Nc2nccc(-c3sc(N4CCOCC4)nc3-c3cccc(NS(=O)(=O)c4c(F)cccc4F)c3F)n2)c1` [Example 130], for which the IC50 against B-Raf and in the test on SK-MEL-28 tumor cells was less than 100 nM each time.

In the case of `Cc1cc(N2CCN(CCS(C)(=O)=O)CC2)ncc1Nc1nccc(-c2sc(C(C)C)nc2-c2cccc(NS(=O)(=O)c3c(F)cccc3F)c2)n1` [Example 131], the IC50 at B-Raf and in the test on SK-MEL-28 tumor cells was less than 100 nM throughout.

Consider `Cc1nc(-c2cccc(NS(=O)(=O)c3c(F)cccc3F)c2)c(-c2ccnc(Nc3ccc(N4CCOCC4)nc3)n2)s1` [Example 133], for which the IC50 at B-Raf and in the test with SK-MEL-28 tumor cells was less than 100 nM in each case.

With `CS(=O)(=O)c1cccc(Nc2nccc(-c3sc(N4CCOCC4)nc3-c3cccc(NS(=O)(=O)c4c(F)cccc4F)c3Cl)n2)c1` [Example 145], the IC50 on B-Raf and in the test with SK-MEL-28 tumor cells was less than 100 nM in each case.

Take `O=S(=O)(Nc1cccc(-c2nc(N3CCOCC3)sc2-c2ccnc(Nc3ccc(N4CCOCC4)nc3)n2)c1Cl)c1c(F)cccc1F` [Example 146]: the concentration for half-maximal inhibition (IC50) on B-Raf and with SK-MEL-28 tumor cells was less than 100 nM throughout.

Consider `O=S(=O)(Nc1cccc(-c2nc(N3CCCCC3)sc2-c2ccnc(Nc3ccc(N4CCOCC4)nc3)n2)c1)c1c(F)cccc1F` [Example 151], for which the IC50 against B-Raf and with SK-MEL-28 tumor cells was less than 100 nM in each case.

On to `CCNc1nc(-c2cccc(NS(=O)(=O)c3c(F)cccc3F)c2)c(-c2ccnc(Nc3ccc(N4CCOCC4)nc3)n2)s1` [Example 152], for which the IC50 on B-Raf and in the test on SK-MEL-28 tumor cells was less than 100 nM each time.

As for `O=S1(=O)Cc2ccc(Nc3nccc(-c4sc(N5CCOCC5)nc4-c4cccc(NS(=O)(=O)c5c(F)cccc5F)c4F)n3)cc2C1` [Example 155], the IC50 on B-Raf and in the test on SK-MEL-28 tumor cells was less than 100 nM in each case.

As to `COc1ccc(S(C)(=O)=O)cc1Nc1nccc(-c2sc(N3CCOCC3)nc2-c2cccc(NS(=O)(=O)c3c(F)cccc3F)c2F)n1` [Example 157], the half-inhibitory concentration (IC50) at B-Raf and in the test with SK-MEL-28 tumor cells was less than 100 nM each time.

Regarding `Cc1cc(Nc2nccc(-c3sc(C(C)(C)C)nc3-c3cccc(NS(=O)(=O)c4c(F)cccc4F)c3F)n2)ccn1` [Example 159], the IC50 against B-Raf and in the test with SK-MEL-28 tumor cells was less than 100 nM in each case.

Consider `O=S(=O)(Nc1cccc(-c2ncsc2-c2ccnc(Nc3ccc(N4CCOCC4)nc3)n2)c1)c1c(F)cccc1F` [Example 162], for which the IC50 at B-Raf and in the test with SK-MEL-28 tumor cells was less than 100 nM in each case.

For the compound `CCNc1nc(-c2ccc(F)c(NS(=O)(=O)c3c(F)cccc3F)c2)c(-c2ccnc(Nc3ccc(N4CCOCC4)nc3)n2)s1` [Example 166], the IC50 at B-Raf and with SK-MEL-28 tumor cells was less than 100 nM throughout.

On to `CS(=O)(=O)CCN1CCN(c2ccc(Nc3nccc(-c4oc(N5CCCC5)nc4-c4cccc(NS(=O)(=O)c5c(F)cccc5F)c4F)n3)cc2F)CC1` [Example 167], for which the IC50 at B-Raf and with SK-MEL-28 tumor cells was less than 100 nM throughout.
